Molecular target: human MTP (Homo sapiens, UniProt P55157)
Experiment: human MTP activity assay (SPA, 3H-triolein transfer between liposomes)
Format: biochemical
Details: human MTP-mediated 3H-triolein transfer from donor to acceptor liposomes, 25 min incubation at 37° C., streptavidin-SPA beads
Description: Such derivatives are clear to those skilled in the art, without undue experimentation, and with reference to the teaching of Burger's Medicinal Chemistry And Drug Discovery, 5th Edition, Vol 1: Principles And Practice, which is incorporated herein by reference. […] MTP inhibitors may be used in the treatment of non-insulin dependent diabetes mellitus, insulin resistance, coronary heart disease, prevention of stroke, pancreatitis, hypercholesterolemia, hypertriglyceridemia, hyperlipemia, mixed dyslipidemia, post-prandial hyperlipemia, atherosclerosis and obesity. The ability of the compounds of this invention to inhibit human MTP activity is measured by an in vitro assay where MTP transfers 3H-triolein between phosphatidylcholine liposomes. The specificity of the compounds of the invention is established by comparing the effects on apoB-100 and apoprotein A-1 production. A specificity of at least 100 is preferred.
The human MTP activity assay was established using SPA technology. Donor liposomes were prepared with 3H-triolein and phosphatidylcholine, while acceptor liposomes contained biotinylated phosphatidylethanolamine and phosphatidylcholine. The MTP-mediated 3H-triolein transfer onto acceptor liposomes was allowed by a 25 min incubation at 37° C., and quantified by the addition of streptavidin-SPA beads.

Sequence of human MTP (P55157 19-894): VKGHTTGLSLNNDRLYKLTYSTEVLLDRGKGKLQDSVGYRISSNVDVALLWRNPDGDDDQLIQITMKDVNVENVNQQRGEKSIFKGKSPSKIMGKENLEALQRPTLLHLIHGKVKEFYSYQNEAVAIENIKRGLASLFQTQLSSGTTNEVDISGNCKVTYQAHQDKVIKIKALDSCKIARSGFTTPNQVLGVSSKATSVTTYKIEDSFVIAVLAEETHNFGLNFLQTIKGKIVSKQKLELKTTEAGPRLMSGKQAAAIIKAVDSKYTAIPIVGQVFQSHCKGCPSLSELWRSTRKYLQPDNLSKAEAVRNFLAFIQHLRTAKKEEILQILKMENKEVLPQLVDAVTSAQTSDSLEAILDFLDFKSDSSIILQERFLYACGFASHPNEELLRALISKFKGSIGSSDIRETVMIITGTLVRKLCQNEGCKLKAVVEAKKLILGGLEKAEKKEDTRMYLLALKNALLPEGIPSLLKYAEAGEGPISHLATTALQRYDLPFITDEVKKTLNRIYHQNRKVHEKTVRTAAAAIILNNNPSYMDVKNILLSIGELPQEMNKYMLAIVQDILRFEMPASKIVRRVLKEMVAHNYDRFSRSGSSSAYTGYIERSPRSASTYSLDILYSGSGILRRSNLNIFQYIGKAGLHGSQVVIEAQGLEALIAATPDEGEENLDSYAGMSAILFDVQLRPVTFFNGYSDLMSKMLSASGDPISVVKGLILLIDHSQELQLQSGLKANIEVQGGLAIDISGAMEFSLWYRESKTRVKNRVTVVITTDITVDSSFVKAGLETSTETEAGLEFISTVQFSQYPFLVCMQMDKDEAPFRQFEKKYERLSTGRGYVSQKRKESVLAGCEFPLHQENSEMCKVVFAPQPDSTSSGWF
Sequence of human MTP (P07237 18-508 partner): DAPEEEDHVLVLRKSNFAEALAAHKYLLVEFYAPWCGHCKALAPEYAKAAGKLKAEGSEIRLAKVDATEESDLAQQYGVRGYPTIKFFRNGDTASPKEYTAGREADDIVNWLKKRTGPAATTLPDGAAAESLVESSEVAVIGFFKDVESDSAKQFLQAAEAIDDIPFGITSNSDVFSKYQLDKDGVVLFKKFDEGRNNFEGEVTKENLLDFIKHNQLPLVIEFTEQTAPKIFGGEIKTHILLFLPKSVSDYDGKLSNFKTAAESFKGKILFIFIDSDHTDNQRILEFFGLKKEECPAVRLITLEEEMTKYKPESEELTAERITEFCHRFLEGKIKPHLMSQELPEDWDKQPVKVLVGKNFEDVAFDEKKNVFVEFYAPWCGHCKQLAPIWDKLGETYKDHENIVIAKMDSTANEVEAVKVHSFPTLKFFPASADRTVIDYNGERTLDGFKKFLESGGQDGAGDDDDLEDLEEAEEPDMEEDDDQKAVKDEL

Molecule	IC50
5-Methyl-4′-trifluoromethyl-biphenyl-2-carboxylic acid [-(4-(1H-pyrrol-2-ylmethyl)-piperazin-1-yl)-phenyl]-amide [Example 64]	0.26 nM

Test system: not given
Experiment: not given
Details: not given

melting point	Molecule
119 to 121 °C	N#Cc1cccc(CN2CCN(c3ccc(NC(=O)c4ccccc4OCCC4CCCCC4)cc3)CC2)c1 [Example 32, N-[4-[4-(3-Cyano-benzyl)-piperazin-1-yl]-phenyl]-2-(2-cyclohexyl-ethoxy)-benzamide]
134 to 136 °C	COc1cccc(C(=O)Nc2ccc(N3CCN(Cc4cccc(C#N)c4)CC3)cc2)c1OCCCc1ccccc1 [Example 33, N-[4-[4-(3-Cyano-benzyl)-piperazin-1-yl]-phenyl]-3-methoxy-2-(3-phenyl-propoxy)-benzamide]
196 to 198 °C	Cc1cccc(C(=O)Nc2ccc(N3CCN(CC(N)=O)CC3)cc2)c1-c1ccc(C(F)(F)F)cc1 [Example 40, 6-Methyl4′-trifluoromethyl-biphenyl-2-carboxylic acid [4-(4-carbamoylmethyl-piperazin-1-yl)-phenyl]-amide]
244 to 246 °C	N#CCN1CCN(c2ccc(NC(=O)c3ccccc3-c3ccc(C(F)(F)F)cc3)cc2)CC1 [Example 41, 4′-Trifluoromethyl-biphenyl-2-carboxylic acid [4-(4-cyanomethyl-piperazin-1-yl]-phenyl]-amide]
167 to 169 °C	CCOC(=O)CN1CCN(c2ccc(NC(=O)c3ccccc3-c3ccc(C(F)(F)F)cc3)cc2)CC1 [Example 42, 4′-Trifluoromethyl-biphenyl-2-carboxylic acid [4-(4-ethoxycarbonylmethyl-piperazin-1-yl)-phenyl]-amide]
176 to 178 °C	CCOCCN1CCN(c2ccc(NC(=O)c3ccccc3-c3ccc(C(F)(F)F)cc3)cc2)CC1 [Example 43, 4′-Trifluoromethyl-biphenyl-2-carboxylic acid [4-(4-(2-ethoxy-ethyl)-piperazin-1-yl]-phenyl]-amide]
208 to 210 °C	O=C(Nc1ccc(N2CCN(CCCO)CC2)cc1)c1ccccc1-c1ccc(C(F)(F)F)cc1 [Example 44, 4′-Trifluoromethyl-biphenyl-2-carboxylic acid [4-(4-(3-hydroxy-propyl)-piperazin-1-yl]-phenyl]-amide]
198 to 200 °C	O=C(Nc1ccc(N2CCN(CCCC(F)(F)F)CC2)cc1)c1ccccc1-c1ccc(C(F)(F)F)cc1 [Example 45, 4′-Trifluoromethyl-biphenyl-2-carboxylic acid [4-(4-(4,4,4-trifluoro-butyl)-piperazin-1-yl]-phenyl]-amide]
203 to 205 °C	CC(C)=CCN1CCN(c2ccc(NC(=O)c3ccccc3-c3ccc(C(F)(F)F)cc3)cc2)CC1 [Example 46, 4′-Trifluoromethyl-biphenyl-2-carboxylic acid [4-(4-(3-methyl-but-2-enyl)-piperazin-1-yl]-phenyl]-amide]
168 to 170 °C	N#Cc1cc(CN2CCN(c3ccc(NC(=O)c4ccccc4-c4ccc(C(F)(F)F)cc4)cc3)CC2)ccc1F [Example 47, 4′-Trifluoromethyl-biphenyl-2-carboxylic acid [4-(4-(3-cyano-4-fluoro-benzyl)-piperazin-1-yl)-phenyl]-amide]
189 to 191 °C	O=C(Nc1ccc(N2CCN(Cc3ccc4c(c3)OCO4)CC2)cc1)c1ccccc1-c1ccc(C(F)(F)F)cc1 [Example 48, 4′-Trifluoromethyl-biphenyl-2-carboxylic acid [4-(4-(3,4-methylenedioxy-benzyl)-piperazin-1-yl)-phenyl]-amide]
152 to 154 °C	O=C(Nc1ccc(N2CCN(Cc3cccc([N+](=O)[O-])c3)CC2)cc1)c1ccccc1-c1ccc(C(F)(F)F)cc1 [Example 49, 4′-Trifluoromethyl-biphenyl-2-carboxylic acid [4-(4-(3-nitro-benzyl)-piperazin-1-yl)-phenyl]-amide]
199 to 201 °C	NC(=O)c1cccc(CN2CCN(c3ccc(NC(=O)c4ccccc4-c4ccc(C(F)(F)F)cc4)cc3)CC2)c1 [Example 50, 4′-Trifluoromethyl-biphenyl-2-carboxylic acid {4-[4-(3-carbamoyl-benzyl)-piperazin-1-yl]-phenyl}-amide]
198 to 200 °C	O=C(Nc1ccc(N2CCN(Cc3ccc(F)cc3)CC2)cc1)c1ccccc1-c1ccc(C(F)(F)F)cc1 [Example 52, 4′-Trifluoromethyl-biphenyl-2-carboxylic acid [4-[4-(4-fluoro-benzyl)-piperazin-1-yl]-phenyl]-amide]
190 to 192 °C	COC(=O)c1cccc(CN2CCN(c3ccc(NC(=O)c4ccccc4-c4ccc(C(F)(F)F)cc4)cc3)CC2)c1 [Example 55, 4′-Trifluoromethyl-biphenyl-2-carboxylic acid [4-[4-(3-carbomethoxy-benzyl)-piperazin-1-yl]-phenyl]-amide]
183 to 185 °C	O=C(Nc1ccc(N2CCN(Cc3cnccn3)CC2)cc1)c1ccccc1-c1ccc(C(F)(F)F)cc1 [Example 58, 4′-Trifluoromethyl-biphenyl-2-carboxylic acid [4-(4-pyrazin-2-ylmethyl-piperazin-1-yl)-phenyl]-amide]
118 to 120 °C	Cn1ccnc1CN1CCN(c2ccc(NC(=O)c3ccccc3-c3ccc(C(F)(F)F)cc3)cc2)CC1 [Example 60, 4′-Trifluoromethyl-biphenyl-2-carboxylic acid [4-[4-(1-methyl-1H-imidazol-2-ylmethyl)-piperazin-1-yl)-phenyl]-amide]
207 to 209 °C	CCCN1CCN(c2ccc(NC(=O)c3ccccc3-c3ccc(C(F)(F)F)cc3)cc2)CC1 [Example 65, 4′-Trifluoromethyl-biphenyl-2-carboxylic acid [4-(4-propyl-piperazin-1-yl)-phenyl]-amide]
181 to 183 °C	CC(=O)c1cccc(CN2CCN(c3ccc(NC(=O)c4ccccc4-c4ccc(C(F)(F)F)cc4)cc3)CC2)c1 [Example 66, 4′-Trifluoromethyl-biphenyl-2-carboxylic acid [4-(4-(3-acetyl-benzyl)-piperazin-1-yl)-phenyl]-amide]
173 to 175 °C	O=C(Nc1ccc(N2CCN(Cc3ccco3)CC2)cc1)c1ccccc1-c1ccc(C(F)(F)F)cc1 [Example 67, 4′-Trifluoromethyl-biphenyl-2-carboxylic acid [4-(4-furan-2-ylmethyl-piperazin-1-yl)-phenyl]-amide]
195 to 197 °C	COc1cccc(C(=O)Nc2ccc(N3CCN(Cc4ccc[nH]4)CC3)cc2)c1-c1ccc(C(C)C)cc1 [Example 68, 4′-Isopropyl-6-methoxy-biphenyl-2-carboxylic acid [4-(4-(1H-pyrrol-2-ylmethyl)-piperazin-1-yl)-phenyl]-amide]
181 to 183 °C	O=C(Nc1ccc(N2CCN(Cc3cccs3)CC2)cc1)c1ccccc1-c1ccc(C(F)(F)F)cc1 [Example 70, 4′-Trifluoromethyl-biphenyl-2-carboxylic acid [4-(4-thiophen-2-ylmethyl-piperazin-1-yl)-phenyl]-amide]
194 to 196 °C	O=C(Nc1ccc(N2CCN(Cc3cc[nH]n3)CC2)cc1)c1ccccc1-c1ccc(C(F)(F)F)cc1 [Example 71, 4′-Trifluoromethyl-biphenyl-2-carboxylic acid {4-[4-(1H-pyrazole-3-ylmethyl)-piperazine-1-yl)-phenyl}-amide]
187 to 189 °C	O=C(Nc1ccc(N2CCN(Cc3ccsc3)CC2)cc1)c1ccccc1-c1ccc(C(F)(F)F)cc1 [Example 72, 4′-Trifluoromethyl-biphenyl-2-carboxylic acid [4-(4-thiophen-3-ylmethyl-piperazin-1-yl)-phenyl]-amide]
168 to 170 °C	O=C(Nc1ccc(N2CCN(Cc3c[nH]c4ccc(F)cc34)CC2)cc1)c1ccccc1-c1ccc(C(F)(F)F)cc1 [Example 73, 4′-Trifluoromethyl-biphenyl-2-carboxylic acid {4-[4-(5-fluoro-1H-indol-3-ylmethyl)-piperazin-1-yl]-phenyl}-amide]
180 to 182 °C	COc1cccc(C(=O)Nc2ccc(N3CCN(Cc4cccc(-c5nc(C)no5)c4)CC3)cc2)c1-c1ccc(C(C)C)cc1 [Example 74, 4′-Isopropyl-6-methoxy-biphenyl-2-carboxylic acid (4-(4-(3-(3-methyl-[1,2,4]oxadiazol-5-yl)-benzyl)-piperazine-1-yl)-phenyl)-amide]
188 to 190 °C	O=C(Nc1ccc(N2CCN(Cc3cccc(-c4noc(C(F)(F)F)n4)c3)CC2)cc1)c1ccccc1-c1ccc(C(F)(F)F)cc1 [Example 75, 4′-Trifluoromethyl-biphenyl-2-carboxylic acid (4-{4-[3-(5-trifluoromethyl-[1,2,4]oxadiazol-3-yl)-benzyl]-piperazin-1-yl}-phenyl)-amide]
174 °C	N#Cc1cccc(CN2CCN(c3ccc(NC(=O)c4ccccc4-n4cccc4)cc3)CC2)c1 [Example 85, N-{4-[4-(3-Cyano-benzyl)-piperazin-1-yl]-phenyl}-2-pyrrol-1-yl-benzamide]
169 to 171 °C	N#Cc1cccc(CN2CCN(c3ccc(NC(=O)c4ccccc4-c4ccccn4)cc3)CC2)c1 [Example 86, N-{4-[4-(3-Cyano-benzyl)-piperazin-1-yl]-phenyl}-2-pyridin-2-yl-benzamide]
